Key:
Assay type in all cases: cell-based, human
[1] = tested on: OE-19 esophageal adenocarcinoma cell line; assay: DIMSCAN cytotoxicity, fenretinide + L-threo-sphinganines 3:1 (Example B19)
Protocol: (§1) Cytotoxicity Assay—Once again, cytotoxicity is determined using the DIMSCAN assay system (R. Proffitt et al., Cytometry 24, 204-213 (1996); T. Frgala et al., Mol Cancer Ther. 6:886-97, 2007). The system employs digital imaging microscopy to quantify viable cells, which selectively accumulate fluorescein diacetate to become brightly fluorescent. The system is capable of measuring cytotoxicity over a 4-5 log dynamic range by quenching the residual fluorescence of dead and dying cells with eosin Y and quantifying the total fluorescence of viable cells using digital thresholding. Measured fluorescence is directly proportionate to the number of viable cells. A comparison of the total fluorescence of a drug-treated cell population to the fluorescence of a similar number of untreated cells yields a survival fraction. In brief, 2000 to 10,000 cells/well (depending on size and growth rates) are replicate plated into 60 wells of a 96-well tissue culture plate in 0.1 mL of whole medium and allowed to attach overnight. Drug(s) are then added in 0.05 mL of whole medium to the final concentrations indicated. Drugs (fenretinide, and various chain length L-threo-sphinganines) were tested both as single agents and in a 3:1 ratio of fenretinide:sphinganine. C18-L-threo-sphinganine, or “safingol,” was also tested and results shown for reference. There are 12 wells treated per drug concentration. Twelve wells receive drug vehicle-only to the appropriate final concentration and serve as controls for the plate. Cells are incubated for 96 hours at 37° C. in ambient air with 5% CO2. Fluorescein diacetate is then added to each well in 0.05 mL media to a final concentration of 8 microgram/mL. Cells are incubated for a further 15 minutes at 37° C. and 0.03 mL of 0.5% eosin Y is added to each well. Total fluorescence of viable cells is then measured by digital imaging microscopy. Results were graphed as the ratio of the fluoresecence of drug-treated wells to non-drug treated control wells (i.e., Survival Fraction). All tests were performed at least twice. Representative results are shown.
(§2) The Combination Index (CI) is a term to describe mathematical modeling of the pharmacologic effects on cytotoxicity (cell death) of two drugs in combination based. Cytotoxic “synergy” is defined as a cell death affect which is greater than would be expected from a simple product of the single agent cytotoxicities alone (i.e. an “additive” effect). By Chou-Talalay analysis, a CI<0.9 on a Fraction Affected (“Fa”, i.e. fraction of cells killed) indicates synergy, with smaller numbers indicating greater synergy; a CI of 0.9-1.1 signifies an additive or near-additive effect; and a CI>1.1 means the drug combination is antagonistic.
Fenretinide and L-threo-sphinganines tested in human esophageal adenocarcinoma (esophagus cancer) cell lines, OE-19 and OE-33.

[2] = tested on: RPMI-8226 Multiple Myeloma cell line; assay: DIMSCAN cytotoxicity, fenretinide + L-threo-sphinganines 3:1 (Example B2); settings: 96 h
Protocol: as §1, §2
Fenretinide and L-threo-sphinganines tested in human Multiple Myeloma (a cancer of the blood and bone marrow) cell line, RPMI-8226.

[3] = tested on: OVCAR-8 ovarian adenocarcinoma cell line; assay: DIMSCAN cytotoxicity, fenretinide + L-threo-sphinganines 3:1 (Example B15); design: key to CI (Combination Index): Chou-Talalay CI: <0.9 synergy, 0.9-1.1 additive, >1.1 antagonism; settings: 96 h
Protocol: as §1, §2
Fenretinide and L-threo-sphinganines tested in human ovarian adenocarcinoma (ovarian cancer) cell line, OVCAR-8.

[4] = tested on: A-549 lung adenocarcinoma cell line; assay: DIMSCAN cytotoxicity, fenretinide + L-threo-sphinganines 3:1 (Example B13); settings: 96 h
Protocol: as §1, §2
Fenretinide and L-threo-sphinganines tested in human lung adenocarcinoma (lung cancer) cell line, A-549.

[5] = tested on: A-172 Glioblastoma multiforme cell line; assay: DIMSCAN cytotoxicity, fenretinide + L-threo-sphinganines 3:1 (Example B4); design: key to CI (Combination Index): Chou-Talalay CI: <0.9 synergy, 0.9-1.1 additive, >1.1 antagonism; settings: 96 h
Protocol: as §1, §2
Fenretinide and L-threo-sphinganines tested in human Glioblastoma multiforme (brain cancer) cell line, A-172.

[6] = tested on: SJ-G2 Glioblastoma cell line; assay: DIMSCAN cytotoxicity, fenretinide + L-threo-sphinganines 3:1 (Example B8); settings: 96 h
Protocol: as §1, §2
Fenretinide and L-threo-sphinganines tested in human Glioblastoma (brain cancer) cell line, SJ-G2.

[7] = 4-HPR 1.5 μM + L-threo-sphinganine 0.5 μM
[8] = 4-HPR 3 μM + L-threo-sphinganine 1 μM
[9] = 4-HPR 6 μM + L-threo-sphinganine 2 μM
[10] = 4-HPR 9 μM + L-threo-sphinganine 3 μM

**Q.** With `CCCCCCCCCCCCCCC[C@H](O)[C@@H](N)CO` [C18, (2S,3S)-2-amino-1,3-octadecanediol, reference compound] as the compound, how does the CI [1, 7] read?
**A.** 0.7

**Q.** What about the Fa [1, 7] of the same compound?
**A.** 0.281

**Q.** And the CI [1, 8]?
**A.** 0.4

**Q.** And the Fa [1, 8]?
**A.** 0.464

**Q.** What about the CI [1, 9] of the same compound?
**A.** 0.2

**Q.** What about the Fa [1, 9] of the same compound?
**A.** 0.709

**Q.** What about the CI [1, 10] of the same compound?
**A.** 0.2

**Q.** And the Fa [1, 10]?
**A.** 0.799

**Q.** And the “CI (Combination Index)” value [2, 7]?
**A.** 1.0

**Q.** What about the “Fa (fraction affected)” value [2, 7] of the same compound?
**A.** 0.616

**Q.** And the “CI (Combination Index)” value [2, 8]?
**A.** 0.9

**Q.** And the “Fa (fraction affected)” value [2, 8]?
**A.** 0.879

**Q.** And the “CI (Combination Index)” value [2, 9]?
**A.** 0.2

**Q.** And the “Fa (fraction affected)” value [2, 9]?
**A.** 0.997

**Q.** And the “CI (Combination Index)” value [2, 10]?
**A.** >0.1

**Q.** What about the “Fa (fraction affected)” value [2, 10] of the same compound?
**A.** 1

**Q.** What about the “CI (Combination Index)” value [3, 7] of the same compound?
**A.** 1.5

**Q.** And the “Fa (fraction affected)” value [3, 7]?
**A.** 0.122

**Q.** And the “CI (Combination Index)” value [3, 8]?
**A.** 1.5

**Q.** And the “Fa (fraction affected)” value [3, 8]?
**A.** 0.202

**Q.** And the “CI (Combination Index)” value [3, 9]?
**A.** 0.7

**Q.** What about the “Fa (fraction affected)” value [3, 9] of the same compound?
**A.** 0.536

**Q.** What about the “CI (Combination Index)” value [3, 10] of the same compound?
**A.** 0.5

**Q.** And the “Fa (fraction affected)” value [3, 10]?
**A.** 0.761

**Q.** What about the “CI (Combination Index)” value [4, 7] of the same compound?
**A.** 1.0

**Q.** What about the “Fa (fraction affected)” value [4, 7] of the same compound?
**A.** 0.012

**Q.** And the “CI (Combination Index)” value [4, 8]?
**A.** 1.0

**Q.** What about the “Fa (fraction affected)” value [4, 8] of the same compound?
**A.** 0.05

**Q.** What about the “CI (Combination Index)” value [4, 9] of the same compound?
**A.** 1.0

**Q.** And the “Fa (fraction affected)” value [4, 9]?
**A.** 0.200

**Q.** What about the “CI (Combination Index)” value [4, 10] of the same compound?
**A.** 0.6

**Q.** What about the “Fa (fraction affected)” value [4, 10] of the same compound?
**A.** 0.700

**Q.** And the “CI (Combination Index)” value [5, 7]?
**A.** 1.3

**Q.** And the “Fa (fraction affected)” value [5, 7]?
**A.** 0.233

**Q.** What about the “CI (Combination Index)” value [5, 8] of the same compound?
**A.** 0.5

**Q.** And the “Fa (fraction affected)” value [5, 8]?
**A.** 0.803

**Q.** And the “CI (Combination Index)” value [5, 9]?
**A.** 0.3

**Q.** What about the “Fa (fraction affected)” value [5, 9] of the same compound?
**A.** 0.956

**Q.** And the “CI (Combination Index)” value [5, 10]?
**A.** 0.1

**Q.** And the “Fa (fraction affected)” value [5, 10]?
**A.** 0.993

**Q.** And the “CI (Combination Index)” value [6, 7]?
**A.** 0.7

**Q.** And the “Fa (fraction affected)” value [6, 7]?
**A.** 0.437

**Q.** What about the “CI (Combination Index)” value [6, 8] of the same compound?
**A.** 0.7

**Q.** What about the “Fa (fraction affected)” value [6, 8] of the same compound?
**A.** 0.728

**Q.** And the “CI (Combination Index)” value [6, 9]?
**A.** 0.5

**Q.** And the “Fa (fraction affected)” value [6, 9]?
**A.** 0.950

**Q.** What about the “CI (Combination Index)” value [6, 10] of the same compound?
**A.** 0.6

**Q.** And the “Fa (fraction affected)” value [6, 10]?
**A.** 0.958

**Q.** How did the “CI (Combination Index)” value [2, 7] turn out when `CCCCCCCCCCCCCCCCCC[C@H](O)[C@@H](N)CO` [C21] was run?
**A.** 1.2

**Q.** What about the “Fa (fraction affected)” value [2, 7] of the same compound?
**A.** 0.517

**Q.** And the “CI (Combination Index)” value [2, 8]?
**A.** 1.6

**Q.** And the “Fa (fraction affected)” value [2, 8]?
**A.** 0.722

**Q.** And the “CI (Combination Index)” value [2, 9]?
**A.** 1.6

**Q.** What about the “Fa (fraction affected)” value [2, 9] of the same compound?
**A.** 0.955

**Q.** And the “CI (Combination Index)” value [2, 10]?
**A.** 1.1

**Q.** What about the “Fa (fraction affected)” value [2, 10] of the same compound?
**A.** 0.999

**Q.** What about the “CI (Combination Index)” value [3, 7] of the same compound?
**A.** 0.1

**Q.** And the “Fa (fraction affected)” value [3, 7]?
**A.** 0.626

**Q.** And the “CI (Combination Index)” value [3, 8]?
**A.** 0.1

**Q.** And the “Fa (fraction affected)” value [3, 8]?
**A.** 0.870

**Q.** And the “CI (Combination Index)” value [3, 9]?
**A.** 0.1

**Q.** And the “Fa (fraction affected)” value [3, 9]?
**A.** 0.977

**Q.** And the “CI (Combination Index)” value [3, 10]?
**A.** 0.2

**Q.** And the “Fa (fraction affected)” value [3, 10]?
**A.** 0.975

**Q.** And the “CI (Combination Index)” value [4, 7]?
**A.** 0.9

**Q.** What about the “Fa (fraction affected)” value [4, 7] of the same compound?
**A.** 0.078

**Q.** What about the “CI (Combination Index)” value [4, 8] of the same compound?
**A.** 2.6

**Q.** What about the “Fa (fraction affected)” value [4, 8] of the same compound?
**A.** 0.044

**Q.** And the “CI (Combination Index)” value [4, 9]?
**A.** 0.8

**Q.** And the “Fa (fraction affected)” value [4, 9]?
**A.** 0.51

**Q.** And the “CI (Combination Index)” value [4, 10]?
**A.** 0.4

**Q.** And the “Fa (fraction affected)” value [4, 10]?
**A.** 0.972

**Q.** And the “CI (Combination Index)” value [5, 7]?
**A.** 8.8

**Q.** What about the “Fa (fraction affected)” value [5, 7] of the same compound?
**A.** 0.006

**Q.** What about the “CI (Combination Index)” value [5, 8] of the same compound?
**A.** 1.6

**Q.** What about the “Fa (fraction affected)” value [5, 8] of the same compound?
**A.** 0.537

**Q.** And the “CI (Combination Index)” value [5, 9]?
**A.** 0.8

**Q.** And the “Fa (fraction affected)” value [5, 9]?
**A.** 0.996

**Q.** And the “CI (Combination Index)” value [5, 10]?
**A.** >0.1

**Q.** And the “Fa (fraction affected)” value [5, 10]?
**A.** 1.000

**Q.** What about the “CI (Combination Index)” value [6, 7] of the same compound?
**A.** 1.5

**Q.** And the “Fa (fraction affected)” value [6, 7]?
**A.** 0.118

**Q.** And the “CI (Combination Index)” value [6, 8]?
**A.** 1.9

**Q.** What about the “Fa (fraction affected)” value [6, 8] of the same compound?
**A.** 0.299

**Q.** And the “CI (Combination Index)” value [6, 9]?
**A.** 1.5

**Q.** And the “Fa (fraction affected)” value [6, 9]?
**A.** 0.809

**Q.** And the “CI (Combination Index)” value [6, 10]?
**A.** 0.5

**Q.** What about the “Fa (fraction affected)” value [6, 10] of the same compound?
**A.** 0.995
